Assay results reported in patent publication US5545547A, “Enzymes as agricultural chemical adjuvants” (priority 1992, dated 1996).

What was measured:
Trichoderma reesei QM6A = test: Fungicide uptake in soybean plants, leaf extract rated for inhibition of fungal growth; set-up: key: -no inhibition; +weak inhibition; ++=good inhibition; +++=strong inhibition
Protocol: The difoliate leaflets of 9-13 day old soybeam plants were treated with solutions of cutinase (100 ug/ml), BENOMYL fungicide [1-(butylcarbamoyl)-2-benzimidazolecarbamic acid methyl ester] (1 mg/ml), and GC219 (12.6 mg/ml) alone and BENOMYL fungicide [1-(butylcarbamoyl)-2-benzimidazolecarbamic acid methyl ester] plus enzymes. The solutions were dissolved in 100 mM sodium phosphate, pH 7 containing 0.5% TRITON surfactant [drawing 2] where n is an integer from 9 to 10 X-100. In addition to TRITON X-100 surfactant, [drawing 3] where n is an integer from 9 to 10 the BENOMYL fungicide [1-(butylcarbamoyl)-2-benzimidazolecarbamic acid methyl ester] contained 5% Dimethyl formamide. For each experiment 100 ul of solution was applied in 5 ul droplets to each difoliate leaflet. Duplicate plants were treated in this manner. The treated plants were incubated for two hours under normal greenhouse conditions. Identical solutions as those applied to the plants were also incubated for two hours to assure chemical stability under greenhouse conditions. After the incubation, the treated leaves were cut at the petiole and rinsed with a 0.05% TRITON X-100 surfactant [drawing 4] where n is an integer from 9 to 10 solution. Both difoliates were then ground with a mortar and pestle with 1.5 ml of a 100 mM sodium phosphate, pH 7 buffer. The extract was centrifuged and the supernatant was sterile filtered through a 0.45 um disc. The supernatant was then added to CMA media containing 2% agar to yield a final volume of 10 mls. 5 mls was them poured into a single well in a 6 well culture plate. Serial dilutions were made for each solution to achieve 1:1, 1:2 and 1:4 dilution of the plant extract in the agar.
Once the agar was solidified each well was innoculated with spores of Trichoderma reesei QM6A strain. The plates were incubated at 30° C. for 24 hours and the growth of T. reesei was rated.

[1] = test system: Pseudomonas mendocina ATCC 53552 lipase, crude preparation of Example 1(C) (includes Lipase 1 and Lipase 2); test: Binding of p-nitrophenyl substrates and turnover kinetics, crude lipase preparation; format: biochemical; details: 0.1M Tris, 0.1 wt. Triton X-100, pH 8.0, 25° C.
Excerpt: The recovered filtrate from the Amicon unit was concentrated to a volume of 3 liters on an Amicon ultrafiltration unit with two Romicon Pm 10 modules. The concentrated material was then dialyzed with 20 liters of 0.01M phosphate buffer, pH 7.5, to remove salts and color. Recovery at this stage averaged about 80%. Total activity for this crude preparation was 8.68×10^6 units. A unit of lipase activity is defined as the amount of enzyme which results in an increase of absorbance at 415 nm of 1.0/minute when incubated at 25° C. with 2.0 mM p-nitrophenylbutyrate in 0.1M pH 8.0 Tris-HCl buffer containing 0.1 wt. adjuvant Triton X-100.
The binding of three p-nitrophenyl substrates and the turnover kinetics were studied for the crude preparation of Example 1(C), where reaction conditions were 0.1M Tris with 0.1 wt. adjuvant Triton X-100, pH 8.0, at 25° C. The substrates were p-nitrophenyl caprylate, p-nitrophenyl laurate, and p-nitrophenyl palmitate, and the data is set out in Table

soybean leaf discs = test: Uptake of radiolabeled agricultural chemicals into leaf discs; format: in vitro ADME
Protocol: Leaf discs (1 cm diameter) were prepared from 9-13 day old soybean plants, and planed them on a nitrocellulose paper that was presoaked with 100 ug/ml stocptomycin in a petri dish. Radioactive chemicals were dissolved in 100 mM sodium phosphate buffer containing 0.05% TRITON X-100 surfactant [drawing 1] where n is an integer from 9 to 10 In addition to TRITON surfactant, (^14 C) uracil solution contained 0.4% ethanol, (^14 C) atrazine contained 10% ethanol (^14 C) indole acetic acid contained 2% ethanol and (^14 C) urea contained 0.2% ethanol. 5 ul of the radioactive chemical solution (9/uci/ml) was applied on the leaf disc and incubated for 5-7 hr at room temperature. After the incubation, leaf discs were rinsed 3 times with 0.025% TRITON X-100 surfactant solution and transferred into separate scintillation vials. Radioactivity taken up by each leaf disc was determined by a scintillation counter after adding 10 ml of Ecolite scintillation fluid into each vial. Ten leaf discs were used for each data point in all experiments. All radioactive chemicals were obtained from Amersham (U.S.A.). The specific activities of the chemicals were as follows:
Cutinase enzyme same as before.
Macerating enzyme, GC219, is an enzyme mixture sold by Genencor which comprises of cellulase, pectinase and hemicellulase.

Soybeans = test: Greenhouse multispecies herbicide screen with/without P. mendocina enzyme; format: in vivo; details: two weeks after treatment
Excerpt: (§1) Several plant species including weeds and crops are used in these experiments.
(§2) A number of herbicides from various chemical classes were compared in a multispecies screen for percent chlorosis, necrosis and vigor reduction both with and without application of the enzyme from Pseudomonas mendocina ATCC 53552 described earlier. The herbicides were applied to various plants at the manufacturers recommended doses and at 10% and 40% of the recommended dose. Two different enzyme concentrations were used: 0.5 mg/ml (HE) and 0.05 mg/ml (LE) and applied at the rate of 40 gallons/acre. All spraying solutions were at pH 10 and contained 100 mm sodium phosphate each. Ratings were done at 6 and 12 days after the treatment. All the experiments were carried out in a greenhouse.
(§3) Chlorosis--figures represent percent of plants showing chlorosis.
(§4) Necrosis--figures represent percent of plants showing necrosis.
(§5) Vigor--figures represent percent of plants showing decreased vigor.
(§6) Phytotoxicity--figures represent the average percent of chlorosis, necrosis, and vigor for a given sample.
(§7) The method of Example 1 was used except that the enzyme was applied 2 hours prior to administering the agricultural chemical with the following results. Ratings were done two weeks after treatment

Turnip = test: as above; format: in vivo; details: two weeks after treatment
Excerpt: as §1, §2, §3, §4, §5, §6, §7

For `CCCCNC(=O)n1c(NC(=O)OC)nc2ccccc21` [BENOMYL fungicide, 1-(butylcarbamoyl)-2-benzimidazolecarbamic acid methyl ester], the “Inhibition of Fungal Growth” value (Trichoderma reesei QM6A; BENOMYL alone (1 mg/ml on leaves), 1:1 dilution of plant extract) was “-”, the “Inhibition of Fungal Growth” value (Trichoderma reesei QM6A; BENOMYL alone, 1:2 dilution) was “-” and the “Inhibition of Fungal Growth” value (Trichoderma reesei QM6A; BENOMYL alone, 1:4 dilution) was “-”. For the same compound, the “Inhibition of Fungal Growth” value (Trichoderma reesei QM6A; Cutinase (100 ug/ml) and BENOMYL, 1:1 dilution) was “+++”, the “Inhibition of Fungal Growth” value (Trichoderma reesei QM6A; Cutinase and BENOMYL, 1:2 dilution) was “++” and the “Inhibition of Fungal Growth” value (Trichoderma reesei QM6A; Cutinase and BENOMYL, 1:4 dilution) was “+”. The “Inhibition of Fungal Growth” value (Trichoderma reesei QM6A; GC219 (12.6 mg/ml) and BENOMYL, 1:1 dilution) was “++”, the “Inhibition of Fungal Growth” value (Trichoderma reesei QM6A; GC219 and BENOMYL, 1:2 dilution) was “+” and the “Inhibition of Fungal Growth” value (Trichoderma reesei QM6A; GC219 and BENOMYL, 1:4 dilution) was “-”.

Work on `CCCCCCCC(=O)Oc1ccc([N+](=O)[O-])cc1` [PNPC, p-nitrophenyl caprylate] yielded a Km [1] of 214 µM and a Vmax [1] of 802 μmole/min/mg protein.

For `CCNc1nc(Cl)nc(NC(C)C)n1` [ATRAZINE, Atrazine], the “Uptake, Radioactivity (cpm)” value (soybean leaf discs; Herbicide table, atrazine, without any addition of protein) was 24007 ± 3984 cpm, the “Uptake, Radioactivity (cpm)” value (soybean leaf discs; Herbicide table, pH 7.0, Cutinase 100 ug/ml, Active Enzyme) was 42684 ± 2333 cpm and the “Uptake, Radioactivity (cpm)” value (soybean leaf discs; Herbicide table, pH 7.0, Cutinase 100 ug/ml, Inactive Protein Control (A126)) was 24832 ± 2834 cpm. The “Uptake, Radioactivity (cpm)” value (soybean leaf discs; Herbicide table, pH 7.0, Cutinase 200 ug/ml, Active Enzyme) was 54133 ± 2874 cpm, the “Uptake, Radioactivity (cpm)” value (soybean leaf discs; Herbicide table, pH 7.0, Cutinase 200 ug/ml, Inactive Protein Control (A126)) was 31097 ± 2959 cpm and the “CHL (chlorosis)” value (Soybeans; ATRAZINE 10% dose, High Enzyme) was 55%. For the same compound, the “NEC (necrosis)” value (Soybeans; ATRAZINE 10% dose, High Enzyme) was 18%, the “PHY (phytotoxicity)” value (Soybeans; ATRAZINE 10% dose, High Enzyme) was 12% and the “VIG (vigor)” value (Soybeans; ATRAZINE 10% dose, High Enzyme) was 13%. The “CHL (chlorosis)” value (Soybeans; ATRAZINE 10% dose, Low Enzyme) was 38%, the “NEC (necrosis)” value (Soybeans; ATRAZINE 10% dose, Low Enzyme) was 58% and the “PHY (phytotoxicity)” value (Soybeans; ATRAZINE 10% dose, Low Enzyme) was 48%. The “VIG (vigor)” value (Soybeans; ATRAZINE 10% dose, Low Enzyme) was 48%, the “CHL (chlorosis)” value (Soybeans; ATRAZINE 10% dose, No Enzyme) was 10% and the “NEC (necrosis)” value (Soybeans; ATRAZINE 10% dose, No Enzyme) was 33%. The “PHY (phytotoxicity)” value (Soybeans; ATRAZINE 10% dose, No Enzyme) was 34%, the “VIG (vigor)” value (Soybeans; ATRAZINE 10% dose, No Enzyme) was 50% and the “CHL (chlorosis)” value (Soybeans; ATRAZINE 40% dose, High Enzyme) was 80%. The “NEC (necrosis)” value (Soybeans; ATRAZINE 40% dose, High Enzyme) was 88%, the “PHY (phytotoxicity)” value (Soybeans; ATRAZINE 40% dose, High Enzyme) was 85% and the “VIG (vigor)” value (Soybeans; ATRAZINE 40% dose, High Enzyme) was 88%. The “CHL (chlorosis)” value (Soybeans; ATRAZINE 40% dose, Low Enzyme) was 100%, the “NEC (necrosis)” value (Soybeans; ATRAZINE 40% dose, Low Enzyme) was 100% and the “PHY (phytotoxicity)” value (Soybeans; ATRAZINE 40% dose, Low Enzyme) was 100%. For the same compound, the “VIG (vigor)” value (Soybeans; ATRAZINE 40% dose, Low Enzyme) was 100%, the “CHL (chlorosis)” value (Soybeans; ATRAZINE 40% dose, No Enzyme) was 55% and the “NEC (necrosis)” value (Soybeans; ATRAZINE 40% dose, No Enzyme) was 63%. The “PHY (phytotoxicity)” value (Soybeans; ATRAZINE 40% dose, No Enzyme) was 58%, the “VIG (vigor)” value (Soybeans; ATRAZINE 40% dose, No Enzyme) was 55% and the “CHL (chlorosis)” value (Turnip; ATRAZINE 10% dose, High Enzyme) was 25%. For the same compound, the “NEC (necrosis)” value (Turnip; ATRAZINE 10% dose, High Enzyme) was 25%, the “PHY (phytotoxicity)” value (Turnip; ATRAZINE 10% dose, High Enzyme) was 25% and the “VIG (vigor)” value (Turnip; ATRAZINE 10% dose, High Enzyme) was 25%. The “CHL (chlorosis)” value (Turnip; ATRAZINE 10% dose, Low Enzyme) was 50%, the “NEC (necrosis)” value (Turnip; ATRAZINE 10% dose, Low Enzyme) was 38% and the “PHY (phytotoxicity)” value (Turnip; ATRAZINE 10% dose, Low Enzyme) was 46%. For the same compound, the “VIG (vigor)” value (Turnip; ATRAZINE 10% dose, Low Enzyme) was 50%, the “CHL (chlorosis)” value (Turnip; ATRAZINE 10% dose, No Enzyme) was 38% and the “NEC (necrosis)” value (Turnip; ATRAZINE 10% dose, No Enzyme) was 23%. For the same compound, the “PHY (phytotoxicity)” value (Turnip; ATRAZINE 10% dose, No Enzyme) was 37%, the “VIG (vigor)” value (Turnip; ATRAZINE 10% dose, No Enzyme) was 50% and the “CHL (chlorosis)” value (Turnip; ATRAZINE 40% dose, High Enzyme) was 75%. The “NEC (necrosis)” value (Turnip; ATRAZINE 40% dose, High Enzyme) was 88%, the “PHY (phytotoxicity)” value (Turnip; ATRAZINE 40% dose, High Enzyme) was 84% and the “VIG (vigor)” value (Turnip; ATRAZINE 40% dose, High Enzyme) was 88%. For the same compound, the “CHL (chlorosis)” value (Turnip; ATRAZINE 40% dose, Low Enzyme) was 90%, the “NEC (necrosis)” value (Turnip; ATRAZINE 40% dose, Low Enzyme) was 90% and the “PHY (phytotoxicity)” value (Turnip; ATRAZINE 40% dose, Low Enzyme) was 90%. For the same compound, the “VIG (vigor)” value (Turnip; ATRAZINE 40% dose, Low Enzyme) was 90%, the “CHL (chlorosis)” value (Turnip; ATRAZINE 40% dose, No Enzyme) was 70% and the “NEC (necrosis)” value (Turnip; ATRAZINE 40% dose, No Enzyme) was 70%. For the same compound, the “PHY (phytotoxicity)” value (Turnip; ATRAZINE 40% dose, No Enzyme) was 74% and the “VIG (vigor)” value (Turnip; ATRAZINE 40% dose, No Enzyme) was 83%.

For `NC(N)=O` [Urea, urea], the “Uptake, Radioactivity (cpm)” value (soybean leaf discs; pH 7) was 785 ± 141 cpm and the “Uptake, Radioactivity (cpm)” value (soybean leaf discs; pH 10) was 398 ± 43 cpm.

`CCCCCCCCCCCCCCCC(=O)Oc1ccc([N+](=O)[O-])cc1` [PNPP, p-nitrophenyl palmitate] was tested, and the Km [1] was 183 µM and the Vmax [1] was 112 μmole/min/mg protein.

`O=C(O)Cc1c[nH]c2ccccc12` [Indole Acetic Acid] was tested, and the “Background uptake, Radioactivity (cpm)” value (soybean leaf discs) was 1292 cpm.

`CCCCCCCCCCCC(=O)Oc1ccc([N+](=O)[O-])cc1` [PNPL, p-nitrophenyl laurate] was tested, and the Km [1] was 167 µM and the Vmax [1] was 214 μmole/min/mg protein.

`CN(C)C(=O)Nc1ccc(Cl)c(Cl)c1` [Diuron, diuron] was tested, and the “Uptake, Radioactivity (cpm)” value (soybean leaf discs; Herbicide table, Diuron, without any addition of protein) was 5739 ± 1376 cpm, the “Uptake, Radioactivity (cpm)” value (soybean leaf discs; Herbicide table, pH 10, Cutinase 200 ug/ml, Active Enzyme) was 8592 ± 803 cpm and the “Uptake, Radioactivity (cpm)” value (soybean leaf discs; Herbicide table, pH 10, Cutinase 200 ug/ml, Inactive Protein Control (A126)) was 6878 ± 2126 cpm.

For `O=c1cc[nH]c(=O)[nH]1` [Uracil, uracil], the “Uptake, Radioactivity (cpm)” value (soybean leaf discs; pH 7) was 2090 ± 549 cpm and the “Uptake, Radioactivity (cpm)” value (soybean leaf discs; pH 10) was 507 ± 162 cpm.
